According to ChEMBL document CHEMBL3885881, “DrugMatrix”:

Species on record: Rattus norvegicus
Assay: DrugMatrix - Regimen: Daily Repeat
Format: toxicity, organism-based, Sprague-Dawley
Set-up: regimen Daily Repeat, gender Male, age 6-8 weeks
Settings: in vivo, po, route oral GAVAGE, […]; for ABSOLUTE BASOPHIL / BASOPHIL / NUCLEATED RED BLOOD CELLS / ABSOLUTE EOSINOPHIL / ABSOLUTE LYMPHOCYTE / ABSOLUTE MONOCYTE / ABSOLUTE SEGMENTED NEUTROPHIL / EOSINOPHIL / ERYTHROCYTE COUNT / HEMATOCRIT / HEMOGLOBIN / LEUKOCYTE COUNT / LYMPHOCYTE / MEAN CORPUSCULAR HEMOGLOBIN / MEAN CORPUSCULAR HEMOGLOBIN CONCENTRATION / MEAN CORPUSCULAR VOLUME / MONOCYTE / NEUTROPHIL / PLATELET COUNT: tissue Blood; for ALANINE AMINOTRANSFERASE / ALBUMIN / ALKALINE PHOSPHATASE / ASPARTATE AMINOTRANSFERASE / BLOOD UREA NITROGEN / CARBON DIOXIDE / CHLORIDE / CHOLESTEROL / CREATINE PHOSPHOKINASE / CREATININE / GLUCOSE / LACTATE DEHYDROGENASE / LIPASE / PHOSPHORUS / POTASSIUM / SODIUM / TOTAL BILIRUBIN / TOTAL PROTEIN / URIC ACID: tissue Plasma
[1] = 0 mg/kg, 72 h, dose level Control, time 3 day
[2] = 0 mg/kg, 120 h, dose level Control, time 5 day
[3] = 52 mg/kg, 72 h, dose level Low, time 3 day
[4] = 52 mg/kg, 120 h, dose level Low, time 5 day
[5] = 89 mg/kg, 72 h, dose level M1, time 3 day
[6] = 89 mg/kg, 120 h, dose level M1, time 5 day

With `Clc1ccccc1C(c1ccccc1)(c1ccccc1)n1ccnc1` [CLOTRIMAZOLE] the “ABSOLUTE BASOPHIL” value [1] was 0 CELLS/uL, the BASOPHIL [1] was 0% and the “NUCLEATED RED BLOOD CELLS” value [1] was 0 /100WBC. For the same molecule, the “ABSOLUTE BASOPHIL” value [2] was 0 CELLS/uL, the BASOPHIL [2] was 0% and the “ABSOLUTE BASOPHIL” value [3] was 0 CELLS/uL. The “ABSOLUTE EOSINOPHIL” value [3] was 0 CELLS/uL, the “ABSOLUTE LYMPHOCYTE” value [3] was 7378.33 CELLS/uL and the “ABSOLUTE MONOCYTE” value [3] was 76.67 CELLS/uL. For the same molecule, the “ABSOLUTE SEGMENTED NEUTROPHIL” value [3] was 611.67 CELLS/uL, the BASOPHIL [3] was 0% and the EOSINOPHIL [3] was 0%. The “ERYTHROCYTE COUNT” value [3] was 4.96 x10E6/uL, the HEMATOCRIT [3] was 32.7% and the HEMOGLOBIN [3] was 12.97 G/DL. The “LEUKOCYTE COUNT” value [3] was 8.07 x10E3/uL, the LYMPHOCYTE [3] was 91.33% and the “MEAN CORPUSCULAR HEMOGLOBIN” value [3] was 26.17 pg. The “MEAN CORPUSCULAR HEMOGLOBIN CONCENTRATION” value [3] was 39.67 G/DL, the “MEAN CORPUSCULAR VOLUME” value [3] was 65.97 fL and the MONOCYTE [3] was 1%. For the same molecule, the NEUTROPHIL [3] was 7.67%, the “NUCLEATED RED BLOOD CELLS” value [3] was 0 /100WBC and the “PLATELET COUNT” value [3] was 996.33 x10E3/uL. For the same molecule, the “ALANINE AMINOTRANSFERASE” value [3] was 116 u/L, the ALBUMIN [3] was 3.73 G/DL and the “ALKALINE PHOSPHATASE” value [3] was 475.33 u/L. The “ASPARTATE AMINOTRANSFERASE” value [3] was 102.67 u/L, the “BLOOD UREA NITROGEN” value [3] was 13.33 mg/dL and the “CARBON DIOXIDE” value [3] was 38 mmol/L. The CHLORIDE [3] was 99 MEQ/L, the CHOLESTEROL [3] was 69.33 mg/dL and the “CREATINE PHOSPHOKINASE” value [3] was 256 u/L. For the same molecule, the CREATININE [3] was 0.12 mg/dL, the GLUCOSE [3] was 158 mg/dL and the “LACTATE DEHYDROGENASE” value [3] was 99 u/L. The LIPASE [3] was 11 u/L, the PHOSPHORUS [3] was 9.1 mg/dL and the POTASSIUM [3] was 5.46 MEQ/L. The SODIUM [3] was 142.67 MEQ/L, the “TOTAL BILIRUBIN” value [3] was 0.17 mg/dL and the “TOTAL PROTEIN” value [3] was 5.43 G/DL. The “URIC ACID” value [3] was 0.57 mg/dL, the “ABSOLUTE BASOPHIL” value [4] was 0 CELLS/uL and the “ABSOLUTE EOSINOPHIL” value [4] was 0 CELLS/uL. The “ABSOLUTE LYMPHOCYTE” value [4] was 8088.33 CELLS/uL, the “ABSOLUTE MONOCYTE” value [4] was 127.33 CELLS/uL and the “ABSOLUTE SEGMENTED NEUTROPHIL” value [4] was 651 CELLS/uL. The BASOPHIL [4] was 0%, the EOSINOPHIL [4] was 0% and the “ERYTHROCYTE COUNT” value [4] was 5.31 x10E6/uL. The HEMATOCRIT [4] was 34.07%, the HEMOGLOBIN [4] was 13.3 G/DL and the “LEUKOCYTE COUNT” value [4] was 8.87 x10E3/uL. For the same molecule, the LYMPHOCYTE [4] was 91.67%, the “MEAN CORPUSCULAR HEMOGLOBIN” value [4] was 25.1 pg and the “MEAN CORPUSCULAR HEMOGLOBIN CONCENTRATION” value [4] was 39.1 G/DL. For the same molecule, the “MEAN CORPUSCULAR VOLUME” value [4] was 64.2 fL, the MONOCYTE [4] was 1.33% and the NEUTROPHIL [4] was 7%. The “NUCLEATED RED BLOOD CELLS” value [4] was 0 /100WBC, the “PLATELET COUNT” value [4] was 1063.67 x10E3/uL and the “ALANINE AMINOTRANSFERASE” value [4] was 68 u/L. For the same molecule, the ALBUMIN [4] was 3.9 G/DL, the “ALKALINE PHOSPHATASE” value [4] was 421.33 u/L and the “ASPARTATE AMINOTRANSFERASE” value [4] was 83.33 u/L. The “BLOOD UREA NITROGEN” value [4] was 13.33 mg/dL, the “CARBON DIOXIDE” value [4] was 27.33 mmol/L and the CHLORIDE [4] was 104.33 MEQ/L. The CHOLESTEROL [4] was 79.67 mg/dL, the “CREATINE PHOSPHOKINASE” value [4] was 203.67 u/L and the CREATININE [4] was 0.34 mg/dL. For the same molecule, the GLUCOSE [4] was 183 mg/dL, the “LACTATE DEHYDROGENASE” value [4] was 97.67 u/L and the LIPASE [4] was 12.67 u/L. The PHOSPHORUS [4] was 12.3 mg/dL, the POTASSIUM [4] was 5.8 MEQ/L and the SODIUM [4] was 144.6 MEQ/L. For the same molecule, the “TOTAL BILIRUBIN” value [4] was 0.1 mg/dL, the “TOTAL PROTEIN” value [4] was 6.03 G/DL and the “URIC ACID” value [4] was 0.63 mg/dL. For the same molecule, the “ABSOLUTE BASOPHIL” value [5] was 0 CELLS/uL, the “ABSOLUTE EOSINOPHIL” value [5] was 25.67 CELLS/uL and the “ABSOLUTE LYMPHOCYTE” value [5] was 8596 CELLS/uL. The “ABSOLUTE MONOCYTE” value [5] was 0 CELLS/uL, the “ABSOLUTE SEGMENTED NEUTROPHIL” value [5] was 345 CELLS/uL and the BASOPHIL [5] was 0%. The EOSINOPHIL [5] was 0.33%, the “ERYTHROCYTE COUNT” value [5] was 5.65 x10E6/uL and the HEMATOCRIT [5] was 35.6%. For the same molecule, the HEMOGLOBIN [5] was 13.1 G/DL, the “LEUKOCYTE COUNT” value [5] was 8.97 x10E3/uL and the LYMPHOCYTE [5] was 95.33%. The “MEAN CORPUSCULAR HEMOGLOBIN” value [5] was 23.17 pg, the “MEAN CORPUSCULAR HEMOGLOBIN CONCENTRATION” value [5] was 36.8 G/DL and the “MEAN CORPUSCULAR VOLUME” value [5] was 63.03 fL. For the same molecule, the MONOCYTE [5] was 0%, the NEUTROPHIL [5] was 4.33% and the “NUCLEATED RED BLOOD CELLS” value [5] was 0 /100WBC. For the same molecule, the “PLATELET COUNT” value [5] was 1000.33 x10E3/uL, the “ALANINE AMINOTRANSFERASE” value [5] was 74.67 u/L and the ALBUMIN [5] was 3.87 G/DL. The “ALKALINE PHOSPHATASE” value [5] was 348.33 u/L, the “ASPARTATE AMINOTRANSFERASE” value [5] was 101.33 u/L and the “BLOOD UREA NITROGEN” value [5] was 15.67 mg/dL. For the same molecule, the “CARBON DIOXIDE” value [5] was 31.33 mmol/L, the CHLORIDE [5] was 99.67 MEQ/L and the CHOLESTEROL [5] was 51 mg/dL. For the same molecule, the “CREATINE PHOSPHOKINASE” value [5] was 324.67 u/L, the CREATININE [5] was 0.17 mg/dL and the GLUCOSE [5] was 143.67 mg/dL. For the same molecule, the “LACTATE DEHYDROGENASE” value [5] was 156.33 u/L, the LIPASE [5] was 11 u/L and the PHOSPHORUS [5] was 10.37 mg/dL. The POTASSIUM [5] was 5.81 MEQ/L, the SODIUM [5] was 144 MEQ/L and the “TOTAL BILIRUBIN” value [5] was 0.13 mg/dL. For the same molecule, the “TOTAL PROTEIN” value [5] was 5.63 G/DL, the “URIC ACID” value [5] was 0.4 mg/dL and the “ABSOLUTE BASOPHIL” value [6] was 0 CELLS/uL. For the same molecule, the “ABSOLUTE EOSINOPHIL” value [6] was 0 CELLS/uL, the “ABSOLUTE LYMPHOCYTE” value [6] was 14137.33 CELLS/uL and the “ABSOLUTE MONOCYTE” value [6] was 157.33 CELLS/uL. The “ABSOLUTE SEGMENTED NEUTROPHIL” value [6] was 1305.33 CELLS/uL, the BASOPHIL [6] was 0% and the EOSINOPHIL [6] was 0%. For the same molecule, the “ERYTHROCYTE COUNT” value [6] was 5.79 x10E6/uL, the HEMATOCRIT [6] was 36.4% and the HEMOGLOBIN [6] was 13.37 G/DL. The “LEUKOCYTE COUNT” value [6] was 15.6 x10E3/uL, the LYMPHOCYTE [6] was 91% and the “MEAN CORPUSCULAR HEMOGLOBIN” value [6] was 23.1 pg. For the same molecule, the “MEAN CORPUSCULAR HEMOGLOBIN CONCENTRATION” value [6] was 36.73 G/DL, the “MEAN CORPUSCULAR VOLUME” value [6] was 62.87 fL and the MONOCYTE [6] was 1%. The NEUTROPHIL [6] was 8%, the “NUCLEATED RED BLOOD CELLS” value [6] was 0 /100WBC and the “PLATELET COUNT” value [6] was 1140.67 x10E3/uL. For the same molecule, the “ALANINE AMINOTRANSFERASE” value [6] was 77.33 u/L, the ALBUMIN [6] was 4.17 G/DL and the “ALKALINE PHOSPHATASE” value [6] was 461 u/L. The “ASPARTATE AMINOTRANSFERASE” value [6] was 103 u/L, the “BLOOD UREA NITROGEN” value [6] was 13.67 mg/dL and the “CARBON DIOXIDE” value [6] was 23.67 mmol/L. The CHLORIDE [6] was 102 MEQ/L, the CHOLESTEROL [6] was 58 mg/dL and the “CREATINE PHOSPHOKINASE” value [6] was 255 u/L. The CREATININE [6] was 0.13 mg/dL, the GLUCOSE [6] was 97.33 mg/dL and the “LACTATE DEHYDROGENASE” value [6] was 293 u/L. The LIPASE [6] was 38.67 u/L, the PHOSPHORUS [6] was 9.33 mg/dL and the POTASSIUM [6] was 7.02 MEQ/L. The SODIUM [6] was 147.95 MEQ/L, the “TOTAL BILIRUBIN” value [6] was 0.33 mg/dL and the “TOTAL PROTEIN” value [6] was 6.23 G/DL. For the same molecule, the “URIC ACID” value [6] was 1.27 mg/dL.
